Among the data in patent publication US10689377B2 (Mirati Therapeutics, Inc., priority 2017, dated 2020) are POC and IC50 values, retold here.

The target in assay [1] is KRas G12C (Homo sapiens, UniProt P01116, C118S/C51S/C80L/G12C). Kind of assay: KRas G12C Modification Assay (LCMS detection of covalent adduct). In kind it is binding. Put shortly:
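Intact protein analysed by LC/MS with deconvolution; unmodified protein signal normalized to no-compound control and reported as percent of control (POC).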

In assay [2] the target is KRas G12C (Homo sapiens, UniProt P01116, G12C). Kind of assay: Cellular inhibition of KRas G12C measured by Phospho-ERK in NCI-H358 cells. The assay is classed as cell-based. As to conditions: pERK(Thr202/Tyr204) normalized with GAPDH, NCI-H358 cells, 3 hours; read-out: IC50. The method in brief:
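Readout is pERK(Thr202/Tyr204) immunofluorescence normalized to GAPDH, expressed as percent of DMSO control and fitted with a 4-parameter curve for IC50. Attached NCI-H358 cells received compound for 3 hours in 0.5% DMSO, followed by fixation and methanol permeabilization.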

Setting [3] is: normalized percent of control, 5 μM concentration for 3 hours.

For the compound `C=CC(=O)N1CCN(c2nc(OCCCN3CCOCC3)nc3c2CCN(c2cc(O)cc4cccnc24)C3)CC1` [Example 205, 1-(4-(7-(6-hydroxyquinolin-8-yl)-2-(3-morpholinopropoxy)-5,6,7,8-tetrahydropyrido[3,4-d]pyrimidin-4-yl)piperazin-1-yl)prop-2-en-1-one], the POC entry in assay [1] (setting [3]) is “C (“C”>50% POC)”. Moreover, in assay [2], the IC50 is greater than 1000 nM.

For the compound `CC(=O)N(C)C/C=C/C(=O)N1CCN(c2nc(OC[C@@H]3CCCN3C)nc3c2CCN(c2cccc4cccc(C)c24)C3)C[C@@H]1CC#N` [Example 587], in assay [1] (setting [3]), the POC result is listed as “A (“A”≤25% POC)”. For the same compound, in assay [2], the 50% inhibitory concentration (IC50) was greater than 1000 nM.

As for `Cc1cccc2cccc(N3CCc4c(nc(OC[C@@H]5CCCN5C)nc4N4CCN(C(=O)/C=C/c5cccnc5)[C@@H](CC#N)C4)C3)c12` [Example 496, 2-((S)-4-(7-(8-methylnaphthalen-1-yl)-2-(((S)-1-methylpyrrolidin-2-yl)methoxy)-5,6,7,8-tetrahydropyrido[3,4-d]pyrimidin-4-yl)-1-((E)-3-(pyridin-3-yl)acryloyl)piperazin-2-yl)acetonitrile], the POC entry in assay [1] (setting [3]) is reported as “C (“C”>50% POC)”. Besides, the IC50 in assay [2] fell in the range of 0.1 to 1000 nM.

For `C=CC(=O)N1CCN(c2nc(OC[C@@H]3CCCN3C)nc3c2CCN(c2c(C(F)(F)F)ccc4[nH]ncc24)C3)CC1CC#N` (stereo partly drawn) [Example 149, 2-[4-[2-[[(2S)-1-methylpyrrolidin-2-yl]methoxy]-7-[5-(trifluoromethyl)-1H-indazol-4-yl]-6,8-dihydro-5H-pyrido[3,4-d]pyrimidin-4-yl]-1-prop-2-enoyl-piperazin-2-yl]acetonitrile], in assay [1] (setting [3]), the POC entry was “B (“B”>25% POC-≤50% POC)”. Further, the IC50 in assay [2] was 0.1 to 1000 nM.

For `C=C(F)C(=O)N1CCN(c2nc(SC[C@@H]3CCCN3C)nc3c2CCN(c2cccc4cccc(C)c24)C3)C[C@@H]1CC#N` [Example 599, 2-((S)-1-(2-Fluoroacryloyl)-4-(7-(8-methylnaphthalen-1-yl)-2-((((S)-1-methylpyrrolidin-2-yl)methyl)thio)-5,6,7,8-tetrahydropyrido [3,4-d]pyrimidin-4-yl)piperazin-2-yl)acetonitrile], in assay [1] (setting [3]), the POC result was “C (“C”>50% POC)”. The IC50 in assay [2] was greater than 1000 nM.

In the case of `C=C(F)C(=O)N1CCN(c2nc(OC[C@@H]3CCCN3CCF)nc3c2CCN(c2cccc4cccc(Cl)c24)C3)C[C@@H]1CC#N` [Example 598, 2-((S)-4-(7-(8-Chloronaphthalen-1-yl)-2-(((S)-1-(2-fluoroethyl)pyrrolidin-2-yl)methoxy)-5,6,7,8-tetrahydropyrido[3,4-d]pyrimidin-4-yl)-1-(2-fluoroacryloyl)piperazin-2-yl)acetonitrile], in assay [1] (setting [3]), the POC result is listed as “C (“C”>50% POC)”. Further, in assay [2], the half-inhibitory concentration (IC50) fell in the range of 0.1 to 1000 nM.

For the compound `CO[C@@H]1C[C@@H](COc2nc3c(c(N4CCN(C(=O)/C=C/CF)[C@@H](CC#N)C4)n2)CCN(c2cccc4cccc(Cl)c24)C3)N(C)C1` [Example 583, 2-[(2S)-4-[7-(8-chloro-1-naphthyl)-2-[[(2S,4R)-4-methoxy-1-methyl-pyrrolidin-2-yl]methoxy]-6,8-dihydro-5H-pyrido[3,4-d]pyrimidin-4-yl]-1-[(E)-4-fluorobut-2-enoyl]piperazin-2-yl]acetonitrile], the POC entry in assay [1] (setting [3]) is given as “C (“C”>50% POC)”. Further, the half-maximal inhibitory concentration (IC50) in assay [2] was 0.1 to 1000 nM.

For the compound `C=CC(=O)N1CCN(c2nc(OC[C@@H]3CCCN3C)nc3c2CCN(c2ccccc2C(C)C)C3)CC1` [Example 158, 1-[4-[7-(2-isopropylphenyl)-2-[[(2S)-1-methylpyrrolidin-2-yl]methoxy]-6,8-dihydro-5H-pyrido[3,4-d]pyrimidin-4-yl]piperazin-1-yl]prop-2-en-1-one], in assay [1] (setting [3]), the POC entry was “C (“C”>50% POC)”. The IC50 in assay [2] is greater than 1000 nM.

As to `C=C(F)C(=O)N1CCN(c2nc(OC[C@@H]3CCCN3C)nc3c2CCN(c2cncc4cccc(Cl)c24)C3)C[C@@H]1CC#N` [Example 593, 2-((S)-4-(7-(5-Chloroisoquinolin-4-yl)-2-(((S)-1-methylpyrrolidin-2-yl)methoxy)-5,6,7,8-tetrahydropyrido[3,4-d]pyrimidin-4-yl)-1-(2-fluoroacryloyl)piperazin-2-yl)acetonitrile], in assay [1] (setting [3]), the POC entry is on record as “C (“C”>50% POC)”. Moreover, the 50% inhibitory concentration (IC50) in assay [2] fell in the range of 0.1 to 1000 nM.

For `C=CC(=O)N1CCN(c2nc(OC[C@@H]3CCCN3C)nc3c2CCN(c2c(C)c(C)cc4[nH]ccc24)C3)C[C@@H]1CC#N` [Example 466, 2-((S)-1-acryloyl-4-(7-(5,6-dimethyl-1H-indol-4-yl)-2-(((S)-1-methylpyrrolidin-2-yl)methoxy)-5,6,7,8-tetrahydropyrido[3,4-d]pyrimidin-4-yl)piperazin-2-yl)acetonitrile], the POC result in assay [1] (setting [3]) was “C (“C”>50% POC)”. Further, the 50% inhibitory concentration (IC50) in assay [2] was 0.1 to 1000 nM.

For the compound `C=CC(=O)N1CCN(c2nc(OC[C@@H]3CCN(C)C3)nc3c2CCN(c2cccc4ccccc24)C3)CC1CC#N` (stereo partly drawn) [Example 177, 2-[4-[2-[[(3R)-1-methylpyrrolidin-3-yl]methoxy]-7-(1-naphthyl)-6,8-dihydro-5H-pyrido[3,4-d]pyrimidin-4-yl]-1-prop-2-enoyl-piperazin-2-yl]acetonitrile], the POC entry in assay [1] (setting [3]) was “C (“C”>50% POC)”. Also, in assay [2], the IC50 is 0.1 to 1000 nM.

For `C=CC(=O)N1CCN(c2nc(OC[C@@H]3CCCN3C)nc3c2CCN(c2c(C(C)C)ccc4[nH]ncc24)C3)CC1` [Example 248, (S)-1-(4-(7-(5-isopropyl-1H-indazol-4-yl)-2-((1-methylpyrrolidin-2-yl)methoxy)-5,6,7,8-tetrahydropyrido[3,4-d]pyrimidin-4-yl)piperazin-1-yl)prop-2-en-1-one], the POC result in assay [1] (5 µM) is on record as “C (key: “A”≤25% POC; “B”>25% POC-≤50% POC; “C”>50% POC)”. The IC50 in assay [2] is greater than 1000 nM.

For the compound `C=CC(=O)N1CCN(c2nc(O[C@H](C)CN(C)CC)nc3c2CCN(c2cc(O)cc4ccccc24)C3)CC1` [Example 131, 1-[4-[2-[(1R)-2-[ethyl(methyl)amino]-1-methyl-ethoxy]-7-(3-hydroxy-1-naphthyl)-6,8-dihydro-5H-pyrido[3,4-d]pyrimidin-4-yl]piperazin-1-yl]prop-2-en-1-one], the POC result in assay [1] (setting [3]) is recorded as “C (“C”>50% POC)”. Moreover, the IC50 in assay [2] lay within 0.1 to 1000 nM.

`C=CC(=O)N1CCN(c2nc(OC[C@@H]3CCCN3C)nc3c2CCN(c2ccccc2C(F)(F)F)C3)CC1CC#N` (stereo partly drawn) [Example 210, 2-(1-acryloyl-4-(2-(((S)-1-methylpyrrolidin-2-yl)methoxy)-7-(2-(trifluoromethyl)phenyl)-5,6,7,8-tetrahydropyrido[3,4-d]pyrimidin-4-yl)piperazin-2-yl)acetonitrile]: the POC entry in assay [1] (setting [3]) was “C (“C”>50% POC)”. The IC50 in assay [2] lay in the range of 0.1 to 1000 nM.

Take `C=CC(=O)N1CCN(c2nc(OC[C@@H]3CCCN3C)nc3c2CCN(c2ncccc2C(F)(F)F)C3)CC1CC#N` (stereo partly drawn) [Example 373, 2-(1-acryloyl-4-(2-(((S)-1-methylpyrrolidin-2-yl)methoxy)-7-(3-(trifluoromethyl)pyridin-2-yl)-5,6,7,8-tetrahydropyrido[3,4-d]pyrimidin-4-yl)piperazin-2-yl)acetonitrile]: in assay [1] (setting [3]), the POC result is recorded as “C (“C”>50% POC)”. Also, the IC50 in assay [2] is greater than 1000 nM.

Consider `C=C(F)C(=O)N1CCN(c2nc(OC[C@@H]3CC(F)(F)CN3C)nc3c2CCN(c2cccc4cccc(Cl)c24)C3)C[C@@H]1CC#N` [Example 543], for which the POC result in assay [1] (setting [3]) was “C (“C”>50% POC)”. Also, the IC50 in assay [2] lay in the range of 0.1 to 1000 nM.

In the case of `C=C(F)C(=O)N1CCN(c2nc(OC[C@@H]3CCCN3)nc3c2CCN(c2cccc4cccc(C)c24)C3)C[C@@H]1CC#N` [Example 568, 2-[(2S)-1-(2-Fluoroprop-2-enoyl)-4-[7-(8-methyl-1-naphthyl)-2-[[(2S)-pyrrolidin-2-yl]methoxy]-6,8-dihydro-5H-pyrido[3,4-d]pyrimidin-4-yl]piperazin-2-yl]acetonitrile], in assay [1] (setting [3]), the POC result is “C (“C”>50% POC)”. The 50% inhibitory concentration (IC50) in assay [2] is 0.1 to 1000 nM.

Consider `C=CC(=O)N1CCN(c2nc(OC[C@@H]3CCCN3C)nc3c2CCN(c2c(C)c(O)cc4ccccc24)C3)CC1` [Example 175, (S)-1-(4-(7-(3-hydroxy-2-methylnaphthalen-1-yl)-2-((1-methylpyrrolidin-2-yl)methoxy)-5,6,7,8-tetrahydropyrido[3,4-d]pyrimidin-4-yl)piperazin-1-yl)prop-2-en-1-one], for which the POC result in assay [1] (setting [3]) is recorded as “C (“C”>50% POC)”. Moreover, in assay [2], the IC50 is 0.1 to 1000 nM.

As to `C=C(F)C(=O)N1CCN(c2nc(OC[C@@H]3CCCN3C)nc3c2CCN(c2c(C(F)(F)F)c(C)cc4[nH]ncc24)C3)C[C@@H]1CC#N` [Example 555, 2-((S)-1-(2-Fluoroacryloyl)-4-(7-(6-methyl-5-(trifluoromethyl)-1H-indazol-4-yl)-2-(((S)-1-methylpyrrolidin-2-yl)methoxy)-5,6,7,8-tetrahydropyrido [3,4-d]pyrimidin-4-yl)piperazin-2-yl)acetonitrile], the POC entry in assay [1] (setting [3]) was “C (“C”>50% POC)”. Moreover, in assay [2], the IC50 fell in the range of 0.1 to 1000 nM.

As for `C=C(F)C(=O)N1CCN(c2nc(OC[C@@H]3CCCN3C)nc3c2CCN(c2cccc4cccc(C(F)(F)F)c24)C3)C[C@@H]1CC#N` [Example 589, 2-((S)-1-(2-Fluoroacryloyl)-4-(2-(((S)-1-methylpyrrolidin-2-yl)methoxy)-7-(8-(trifluoromethyl)naphthalen-1-yl)-5,6,7,8-tetrahydropyrido[3,4-d]pyrimidin-4-yl)piperazin-2-yl)acetonitrile], in assay [1] (setting [3]), the POC result is given as “C (“C”>50% POC)”. Moreover, the IC50 in assay [2] fell in the range of 0.1 to 1000 nM.

As to `C=CC(=O)N1CCN(c2nc(OC[C@@H]3CCCN3C(C)C)nc3c2CCN(c2cccc4ccccc24)C3)CC1CC#N` (stereo partly drawn) [Example 252, 2-[4-[2-[[(2S)-1-isopropylpyrrolidin-2-yl]methoxy]-7-(1-naphthyl)-6,8-dihydro-5H-pyrido[3,4-d]pyrimidin-4-yl]-1-prop-2-enoyl-piperazin-2-yl]acetonitrile], in assay [1] (setting [3]), the POC result is on record as “C (“C”>50% POC)”. Moreover, the half-inhibitory concentration (IC50) in assay [2] was in the range of 0.1 to 1000 nM.
